What all share (type): cell-based
The target of test [1] is T1, hGIPR (Homo sapiens, UniProt P48546).
T1 sequence (P48546 22-466): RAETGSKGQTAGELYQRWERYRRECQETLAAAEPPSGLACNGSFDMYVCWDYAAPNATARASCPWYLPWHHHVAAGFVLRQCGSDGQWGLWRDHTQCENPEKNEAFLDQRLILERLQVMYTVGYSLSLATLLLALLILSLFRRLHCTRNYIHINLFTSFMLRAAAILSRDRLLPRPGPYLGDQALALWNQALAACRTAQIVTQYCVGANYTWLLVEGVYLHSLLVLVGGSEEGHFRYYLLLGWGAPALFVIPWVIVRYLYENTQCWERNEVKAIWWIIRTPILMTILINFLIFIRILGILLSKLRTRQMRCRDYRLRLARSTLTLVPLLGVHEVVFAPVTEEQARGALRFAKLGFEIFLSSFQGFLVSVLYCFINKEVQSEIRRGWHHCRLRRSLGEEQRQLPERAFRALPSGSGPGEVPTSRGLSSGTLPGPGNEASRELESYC
Kind of test: Functional cAMP activity in the presence of 1% HSA. The settings on record: read-out: cAMP Rel EC50, hGIPR.

In test [2] the target is T2, hGLP-1R (Homo sapiens, UniProt P43220). Kind of test: Functional cAMP activity in the presence of 1% HSA. The settings on record: read-out: cAMP Rel EC50, hGLP-1R.
T2 sequence (P43220 24-463): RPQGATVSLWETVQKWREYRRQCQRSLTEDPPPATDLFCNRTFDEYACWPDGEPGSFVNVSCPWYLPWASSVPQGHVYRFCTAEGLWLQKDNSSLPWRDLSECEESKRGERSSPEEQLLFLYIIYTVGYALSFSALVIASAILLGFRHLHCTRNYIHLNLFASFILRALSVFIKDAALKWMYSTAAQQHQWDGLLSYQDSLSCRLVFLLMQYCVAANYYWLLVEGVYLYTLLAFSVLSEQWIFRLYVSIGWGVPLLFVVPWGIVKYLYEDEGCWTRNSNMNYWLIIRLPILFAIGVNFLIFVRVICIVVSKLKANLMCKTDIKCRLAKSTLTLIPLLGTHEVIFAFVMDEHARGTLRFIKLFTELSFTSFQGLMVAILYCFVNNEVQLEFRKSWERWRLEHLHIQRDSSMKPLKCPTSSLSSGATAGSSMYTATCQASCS
Another test concerns the target human GcgR (Homo sapiens, UniProt P47871). In words: Functional cAMP activity in the presence of 1% HSA. The conditions noted are these: read-out: cAMP Rel EC50, hGcgR.
The target in test [3] is T1, hGIPR. Kind of test: Functional cAMP activation in the presence of 0.1% casein (no HSA). The settings on record: read-out: Relative cAMP EC50, hGIPR.
Test [4] has as its target T2, hGLP-1R. Described as above. The conditions noted are these: read-out: Relative cAMP EC50, hGLP-1R.
A further test deals with hGcgR (Homo sapiens, UniProt P47871). The description is as above. The settings on record: read-out: Relative cAMP EC50, hGcgR.
Sequence of hGcgR (P47871 26-477): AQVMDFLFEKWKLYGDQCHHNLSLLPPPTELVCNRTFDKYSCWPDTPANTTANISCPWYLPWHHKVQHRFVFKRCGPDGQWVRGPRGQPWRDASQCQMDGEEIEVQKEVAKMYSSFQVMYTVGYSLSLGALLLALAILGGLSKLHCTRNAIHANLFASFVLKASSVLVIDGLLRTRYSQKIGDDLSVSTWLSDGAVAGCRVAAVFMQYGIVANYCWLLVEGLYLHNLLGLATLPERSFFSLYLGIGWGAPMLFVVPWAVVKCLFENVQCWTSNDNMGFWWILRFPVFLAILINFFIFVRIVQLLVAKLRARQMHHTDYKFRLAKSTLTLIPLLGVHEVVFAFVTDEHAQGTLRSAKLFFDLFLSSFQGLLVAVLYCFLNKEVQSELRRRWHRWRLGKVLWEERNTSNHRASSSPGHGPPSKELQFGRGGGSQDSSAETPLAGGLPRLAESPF
[5] abbreviates: in the presence of 0.1% casein (no HSA), geometric mean.
Setting [6] is: HEK-293 clonal cell line, in the presence of 1% HSA, geometric mean of relative EC50.

Where two headings read alike, the source gives them in different places. Starred links: 1 amine or outer side, 2 acyl side, 3 side chain; linkers in the order of their positions; H or OH if unused. Non-standard residues stand in square brackets, D forms with d. Groups on a side chain read outwards from the residue. No end group written: not given here. *: point of attachment. C20 diacid = O=C(O)CCCCCCCCCCCCCCCCCCC(=O)*; C18 diacid = O=C(O)CCCCCCCCCCCCCCCCC(=O)*; αMePhe(2-F) = C[C@](N)(Cc1ccccc1F)C(=O)O; γGlu = O=C(O)[C@H](CCC(=O)[*:2])N[*:1]; αMe4Pal = C[C@](N)(Cc1ccncc1)C(=O)O; αMeY = C[C@](N)(Cc1ccc(O)cc1)C(=O)O; Hyp = O=C(O)[C@@H]1C[C@@H](O)CN1; 4Pal = N[C@@H](Cc1ccncc1)C(=O)O; αMeL = CC(C)C[C@](C)(N)C(=O)O; αMeS = C[C@](N)(CO)C(=O)O; Orn = NCCC[C@H](N)C(=O)O; AEEA = NCCOCCOCC(=O)O; Aib = CC(C)(N)C(=O)O
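Wherever Relative cAMP EC50, hGIPR is given: intracellular cAMP rise after 30 min at 37 °C read by HTRF against a standard curve, scaled between buffer alone (0%) and top control ligand concentration (100%), four-parameter fit.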
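Wherever Relative cAMP EC50, hGLP-1R is given: intracellular cAMP rise after 30 min at 37 °C read by HTRF, normalized between buffer only (0%) and maximal control ligand (100%), four-parameter variable-slope fit.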
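Wherever Relative cAMP EC50, hGcgR is given: intracellular cAMP rise after 30 min at 37 °C, read by HTRF against a cAMP standard curve, scaled from buffer only (0%) to maximal control ligand response (100%).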

Sequence of human GcgR (P47871 26-477): as above

On to “H-Y[Aib]QGT[αMePhe(2-F)]TSD[4Pal]SILLDKK([γGlu-γGlu-C18 diacid])AQ[Aib]AFIE[αMeY]LEEGGPSSGAPPPSGEGE-NH2 [Example 667]”, for which the concentration for a half-maximal effect (EC50) on hGIPR [1] was found to be 1.46 nM; at hGLP-1R [2], 33 nM; at human GcgR, 215 nM; at hGIPR [3] it was 0.0217 nM; at hGLP-1R [4] it was 0.42 nM; on hGcgR it was 2.34 nM.

With “H-Y[Aib]QGTFTSDFS[Orn][αMeL]LDKK([AEEA-γGlu-C18 diacid])AQ[Aib]AFIEYLLEGGPSSGAP[Hyp]PGGS-NH2 [Example 236]”, the 50% effective concentration (EC50) on hGIPR [1] came to 24.8 nM; on hGLP-1R [2], 261 nM; at human GcgR, 309 nM; on hGIPR [3] (setting [5]) it was 0.309 nM; on hGLP-1R [4] (setting [5]) it was 3.33 nM; on hGcgR (setting [5]), 2.23 nM.

Regarding “H-Y[Aib]QGTFTSDFS[Orn][αMeL]LDKK([AEEA-γGlu-C18 diacid])AQ[Aib]AFIEYLLEGGPSSGAPPPGGE-NH2 [Example 63]”, the EC50 on hGIPR [1] came out at 40.4 nM; on hGLP-1R [2] it was 348 nM; on human GcgR, 709 nM; at hGIPR [3] (setting [5]) it was 0.255 nM; at hGLP-1R [4] (setting [5]), 4.78 nM; on hGcgR (setting [5]), 4.1 nM.

For “H-Y[Aib]QGTFTSDFS[Orn][αMeL]LDKK([AEEA-AEEA-γGlu-C18 diacid])AQ[Aib]AFIEWLLEGGHSSGAPPPGGE-NH2 [Example 271]”, the EC50 was 15.7 nM at hGIPR [1]; 887 nM on hGLP-1R [2]; 2680 nM on human GcgR; 0.152 nM on hGIPR [3] (setting [5]); 5 nM at hGLP-1R [4] (setting [5]); 8.51 nM at hGcgR (setting [5]).

As for `CC[C@H](C)[C@H](NC(=O)[C@H](Cc1ccccc1)NC(=O)[C@H](C)NC(=O)[C@](C)(Cc1ccncc1)NC(=O)[C@H](CCC(N)=O)NC(=O)[C@H](C)NC(=O)[C@H](CCCCNC(=O)CC[C@H](NC(=O)CC[C@H](NC(=O)CCCCCCCCCCCCCCCCC(=O)O)C(=O)O)C(=O)O)NC(=O)[C@H](CCCCN)NC(=O)[C@H](CC(=O)O)NC(=O)[C@H](CC(C)C)NC(=O)[C@](C)(CC(C)C)NC(=O)[C@H](CCC(N)=O)NC(=O)[C@H](CO)NC(=O)[C@H](Cc1ccncc1)NC(=O)[C@H](CC(=O)O)NC(=O)[C@H](CO)NC(=O)[C@@H](NC(=O)[C@H](Cc1ccccc1)NC(=O)[C@@H](NC(=O)CNC(=O)[C@H](CCC(N)=O)NC(=O)C(C)(C)NC(=O)[C@@H](N)Cc1ccc(O)cc1)[C@@H](C)O)[C@@H](C)O)C(=O)N[C@@H](CCC(=O)O)C(=O)N[C@@H](Cc1ccc(O)cc1)C(=O)N[C@@H](CC(C)C)C(=O)N[C@H](C(=O)N[C@@H](CCC(=O)O)C(=O)N[C@H](C)C(=O)NCC(=O)N1CCC[C@H]1C(=O)N[C@@H](CO)C(=O)N[C@@H](CO)C(=O)NCC(=O)N[C@@H](C)C(=O)N1CCC[C@H]1C(=O)N1CCC[C@H]1C(=O)N1CCC[C@H]1C(=O)N[C@@H](CO)C(=O)NCC(=O)N[C@@H](CO)C(=O)N[C@@H](CCC(=O)O)C(N)=O)[C@@H](C)CC` [Example 1025], the half-maximal effective concentration (EC50) at hGIPR [1] turned out to be 31.5 nM; on hGLP-1R [2], 352 nM; at human GcgR, 625 nM; at hGIPR [3] (setting [5]) it was 0.18 nM; on hGLP-1R [4] (setting [5]), 2.45 nM; at hGcgR (setting [5]), 3.22 nM.

For the compound “Y[Aib]QGTFTSD[4Pal]SQ[αMeL]LDKK([γGlu-γGlu-C18 diacid])AQ[αMe4Pal]AFIE[αMe4Pal]LIE[Aib]GPSSGAPPPSGSEE-NH2 [Example 1122]”, the EC50 worked out at 4.54 nM at hGIPR [1] (setting [6]); 177 nM on hGLP-1R [2] (setting [6]); 474 nM on human GcgR (setting [6]); 0.109 nM on hGIPR [3] (setting [5]); 5.66 nM at hGLP-1R [4] (setting [5]); 10.3 nM on hGcgR (setting [5]).

Consider “H-Y[Aib]QGTFTSDYSI[αMeL]LDKQAAK([AEEA-AEEA-γGlu-C20 diacid])QFVEWLIA[Aib]GPSSGEPPPGSG-NH2 [Example 335]”, for which the 50% effective concentration (EC50) at hGIPR [1] stood at 46.7 nM; on hGLP-1R [2] it was 150 nM; at human GcgR it was 1410 nM; at hGIPR [3] (setting [5]), 0.292 nM; at hGLP-1R [4] (setting [5]), 0.461 nM; on hGcgR (setting [5]), 6.11 nM.

As to “H-Y[Aib]QGTFTSD[4Pal]SQ[αMeL]LDKK([AEEA-γGlu-C18 diacid])AQ[αMe4Pal]AFIEYLIE[Aib]GPSSGAPPPEGS-NH2 [Example 851]”, the half-maximal effective concentration (EC50) was determined as 24.4 nM at hGIPR [1]; 428 nM on hGLP-1R [2]; 558 nM on human GcgR; 0.215 nM at hGIPR [3] (setting [5]); 3.06 nM at hGLP-1R [4] (setting [5]); 3.38 nM on hGcgR (setting [5]).

“H-Y[Aib]QGTFTSD[4Pal]SR[αMeL]LDKK([γGlu-γGlu-C18 diacid])AQ[αMe4Pal]AFIE[αMe4Pal]LIEGGPSSGAPPPSGS-NH2 [Example 953]”: the 50% effective concentration (EC50) on hGIPR [1] worked out at 10.9 nM; on hGLP-1R [2] it was 347 nM; on human GcgR it was 275 nM; on hGIPR [3] (setting [5]) it was 0.111 nM; at hGLP-1R [4] (setting [5]), 2.63 nM; at hGcgR (setting [5]) it was 2.75 nM.

For “Y[Aib]QGT[αMePhe(2-F)]TSD[4Pal][αMeS]I[αMeL]LD[Orn]K([γGlu-γGlu-C18 diacid])AQ[Aib][Orn]FI[dE][αMeY]LQEGGPSSGEPPPSGTE-NH2 [Example 504]”, the EC50 at hGIPR [1] was found to be 1.8 nM; on hGLP-1R [2], 16.5 nM; on human GcgR, 162 nM; on hGIPR [3] it was 0.0364 nM; at hGLP-1R [4], 0.253 nM; at hGcgR it was 2.83 nM.

Consider “Y[Aib]QGT[αMePhe(2-F)]TSD[4Pal][αMeS]I[αMeL]LD[Orn]K([γGlu-γGlu-C18 diacid])AQ[Aib][Orn]FI[dE][αMeY]LAEGGPSSGEPPPSGTEE-NH2 [Example 571]”, for which the EC50 at hGIPR [1] amounted to 4.23 nM; at hGLP-1R [2] it was 42.7 nM; on human GcgR, 243 nM; at hGIPR [3], 0.0746 nM; on hGLP-1R [4], 0.603 nM; on hGcgR, 3.27 nM.

Turning to “H-Y[Aib]QGTFTSDFS[Orn][αMeL]LDKK([γGlu-γGlu-C18 diacid])AQ[Aib]AFIEYLLE[Aib]GPSSGAPPPSGS-NH2 [Example 201]”, the EC50 on hGIPR [1] was determined as 14.3 nM; at hGLP-1R [2], 679 nM; on human GcgR, 969 nM; on hGIPR [3] (setting [5]), 0.0553 nM; on hGLP-1R [4] (setting [5]), 3.16 nM; at hGcgR (setting [5]) it was 3.84 nM.

As for “H-Y[Aib]QGTFTSD[4Pal]SQ[αMeL]LD[Orn]K([AEEA-γGlu-C18 diacid])AQ[αMe4Pal]QFIE[αMeY]LIA[Aib]GPSSGEPPPSGSEE-NH2 [Example 1100]”, the concentration for a half-maximal effect (EC50) on hGIPR [1] stood at 9.04 nM; on hGLP-1R [2], 77.2 nM; at human GcgR it was 577 nM; at hGIPR [3] (setting [5]) it was 0.0694 nM; on hGLP-1R [4] (setting [5]) it was 0.514 nM; on hGcgR (setting [5]), 5.28 nM.

“Y[Aib]QGT[αMePhe(2-F)]TSD[4Pal][αMeS]I[αMeL]LE[Orn]K([AEEA-γGlu-C18 diacid])AQ[αMe4Pal]EFI[dE][αMeY]LVEGGPSSGAPPPSGS-NH2 [Example 768]”: the EC50 amounted to 2.65 nM on hGIPR [1]; 33.2 nM on hGLP-1R [2]; 2270 nM at human GcgR; 0.0294 nM on hGIPR [3]; 0.259 nM on hGLP-1R [4]; 10.3 nM on hGcgR.

“H-Y[Aib]QGTFTSD[4Pal]SQ[αMeL]LD[Orn]K([γGlu-γGlu-C18 diacid])AQ[αMe4Pal]AFIEYLIAGGPSSGEPPPSGS-NH2 [Example 1007]”: the EC50 on hGIPR [1] amounted to 12 nM; on hGLP-1R [2], 95.1 nM; at human GcgR, 636 nM; at hGIPR [3] (setting [5]), 0.116 nM; at hGLP-1R [4] (setting [5]), 0.668 nM; on hGcgR (setting [5]) it was 5.34 nM.

Turning to “Y[Aib]QGTFTSD[4Pal]SR[αMeL]LDKK([AEEA-γGlu-C18 diacid])AQ[αMe4Pal]AFIE[αMeY]LIEGGPSSGAPPPSGS-NH2 [Example 843]”, the EC50 on hGIPR [1] came out at 32.8 nM; on hGLP-1R [2], 135 nM; at human GcgR it was 367 nM; on hGIPR [3] (setting [5]), 0.334 nM; on hGLP-1R [4] (setting [5]), 0.874 nM; at hGcgR (setting [5]) it was 3.41 nM.

As a reminder, the EC50 is the midpoint of the concentration-response curve.

The values are drawn from patent US20240270821A1, “GIP/GLP1/GCG TRI-RECEPTOR AGONISTS AND USES THEREOF” (priority 2023, published 2024).
